Assay results published in patent US10065950B2, “Substituted thiazoles as HIV integrase inhibitors” (Japan Tobacco Inc., priority 2010, dated 2018).

Biological target: HIV-1 pNL4-3 integrase (Human immunodeficiency virus type 1 group M subtype B (isolate NY5) (HIV-1), UniProt P12497)
Assay: Determination of enzyme (HIV integrase) inhibitory activity
Type: biochemical
Conditions: calculated from inhibition rate (fluorescence)
How it was run: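 Full-length pNL4-3 integrase from E. coli (0.75 μM stock) reacted 60 min at 37° C with compound and biotinylated donor DNA bound to streptavidin plates, in MOPS buffer with 5 mM MgCl2 and 10% DMSO. Digoxigenin-labelled target DNA (25 nM stock) then added for 20 min; strand transfer read by peroxidase anti-digoxigenin fluorescence (Ex 325/Em 420 nm).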

Row | Structure (SMILES) | IC50 [nM]
1 | COC[C@H]1CN(C(C)C)C(=O)c2c(O)c(=O)c(-c3nnc(Cc4ccc(F)cc4Br)s3)cn21 [Example 230] | 69
2 | CC(C)NC(=O)CC1CN(C(C)C)C(=O)c2c(O)c(=O)c(-c3ncc(Cc4ccc(F)cc4F)s3)cn21 (centres unmarked) [Example 36] | 13
3 | CC[C@H](C)N1C[C@H](COC)n2cc(-c3nnc(Cc4ccc(F)cc4F)s3)c(=O)c(O)c2C1=O [Example 135] | 12
4 | CCN1C(=O)c2c(O)c(=O)c(-c3nnc(Cc4ccc(F)cc4)s3)cn2CC1(COC)COC [Example 301] | 8
5 | CC(C)N1C(=O)c2c(O)c(=O)c(-c3nnc(Cc4ccc(F)cc4)s3)cn2CC12CC2 [Example 176] | 8.5
6 | COCC1CN(C(=O)[C@@]2(C)CN(C(C)C)C(=O)c3c(O)c(=O)c(-c4ncc(Cc5ccc(F)cc5)s4)cn32)C1 [Example 238] | 18
7 | CCN1C(=O)c2c(O)c(=O)c(-c3ncc(Cc4ccc(F)cc4)s3)cn2C[C@H]1[C@H](C)OC [Example 333] | 7.5
8 | CN(C)C(=O)[C@@]1(C)CN(C2CC2)C(=O)c2c(O)c(=O)c(-c3nnc(Cc4ccc(F)cc4)s3)cn21 [Example 178] | 20
9 | CCOC[C@@H]1Cn2cc(-c3ncc(Cc4ccc(F)cc4)s3)c(=O)c(O)c2C(=O)N1CC1CC1 [Example 218] | 6.5
10 | COCCOC[C@@H]1CN(C(C)C)C(=O)c2c(O)c(=O)c(-c3nnc(Cc4ccc(F)cc4F)s3)cn21 [Example 46] | 11
11 | COC1CN(C(=O)[C@@]2(C)CN(C(C)C)C(=O)c3c(O)c(=O)c(-c4ncc(Cc5ccc(F)cc5)s4)cn32)C1 [Example 237] | 13
12 | CC(C)N1CC(C)(C(=O)N2CCC2)n2cc(-c3ncc(Cc4ccc(F)cc4F)s3)c(=O)c(O)c2C1=O (centres unmarked) [Example 94] | 8.8
13 | COCCOC[C@H]1Cn2cc(-c3ncc(Cc4ccc(F)cc4F)s3)c(=O)c(O)c2C(=O)N1C(C)C [Example 59] | 12
14 | CCN1C(=O)c2c(O)c(=O)c(-c3nnc(Cc4ccc(F)cc4)s3)cn2[C@@H](COC)[C@@H]1C [Example 284] | 11
15 | CC(C)N1C(=O)c2c(O)c(=O)c(-c3nnc(Cc4ccc(F)cc4)s3)cn2C[C@@]1(C)C(=O)NC(C)(C)C [Example 309] | 8.8
16 | CC(C)N1C[C@](C)(C(=O)N2CCC2)n2cc(-c3nnc(Cc4ccc(F)cc4)s3)c(=O)c(O)c2C1=O [Example 2] | 13
17 | COC[C@H]1[C@H](C)n2cc(-c3nnc(Cc4ccc(F)cc4)s3)c(=O)c(O)c2C(=O)N1C(C)C [Example 299] | 9.8
18 | COCC1Cn2cc(-c3nnc(Cc4ccc(F)cc4F)s3)c(=O)c(O)c2C(=O)N1CC(C)C (centres unmarked) [Example 43] | 4.6
19 | COC[C@H]1[C@@H](C)N(C(C)C)C(=O)c2c(O)c(=O)c(-c3nnc(Cc4ccc(F)cc4)s3)cn21 [Example 256] | 8.2
20 | CCN1C[C@](C)(CO)n2cc(-c3nnc(Cc4ccc(F)cc4)s3)c(=O)c(O)c2C1=O [Example 269] | 9.4
21 | CC(=O)NC[C@H]1Cn2cc(-c3nnc(Cc4ccc(F)cc4F)s3)c(=O)c(O)c2C(=O)N1C(C)C [Example 140] | 5.8
22 | CC[C@@H](C)N1C[C@H](COC)n2cc(-c3nnc(Cc4ccc(F)cc4F)s3)c(=O)c(O)c2C1=O [Example 147] | 8.3
23 | CCC(=O)N(C)CC1(C)CN(C(C)C)C(=O)c2c(O)c(=O)c(-c3ncc(Cc4ccc(F)cc4F)s3)cn21 (centres unmarked) [Example 7] | 13
24 | COC[C@H]1CN(C(C)C)C(=O)c2c(O)c(=O)c(-c3nnc(Cc4c(F)cc(F)cc4OC)s3)cn21 [Example 220] | 6.8
25 | CC(C)N1C[C@](C)(C(=O)N(C)C)n2cc(-c3nnc(Cc4ccc(F)cc4F)s3)c(=O)c(O)c2C1=O [Example 169] | 12

Row | Structure (SMILES) | IC50 [nM]
26 | COC[C@@H]1Cn2cc(-c3nnc(Cc4ccc(F)cc4)s3)c(=O)c(O)c2C(=O)N1C(C)C1CC1 (some centres unmarked) [Example 206] | 5.9
27 | CC(C)[C@H]1CN(C(C)C)C(=O)c2c(O)c(=O)c(-c3nnc(Cc4ccc(F)cc4)s3)cn21 [Example 194] | 8.2
28 | CNC(=O)[C@]1(C)CN(C(C)C)C(=O)c2c(O)c(=O)c(-c3ncc(Cc4ccc(F)cc4)s3)cn21 [Example 227] | 13
29 | C[C@]1(C(=O)N2CCC2)CN(CC2CC2)C(=O)c2c(O)c(=O)c(-c3ncc(Cc4ccc(F)cc4)s3)cn21 [Example 255] | 9
30 | CCC(C)(C)C(=O)N(C)C[C@@H]1Cn2cc(-c3nnc(Cc4ccc(F)cc4)s3)c(=O)c(O)c2C(=O)N1C(C)C [Example 183] | 10
31 | C[C@H](C1CC1)N1C[C@](C)(C(=O)N(C)C)n2cc(-c3ncc(Cc4ccc(F)cc4)s3)c(=O)c(O)c2C1=O [Example 282] | 15
32 | CC(C)NC(=O)C1(C)CN(C(C)C)C(=O)c2c(O)c(=O)c(-c3ncc(Cc4ccc(F)cc4)s3)cn21 (centres unmarked) [Example 106] | 20
33 | CCC(OC)[C@H]1CN(C(C)C)C(=O)c2c(O)c(=O)c(-c3nnc(Cc4ccc(F)cc4)s3)cn21 (some centres unmarked) [Example 382] | 8.7
34 | CCNC(=O)[C@@]1(C)CN([C@H](C)C2CC2)C(=O)c2c(O)c(=O)c(-c3ncc(Cc4ccc(F)cc4)s3)cn21 [Example 283] | 18
35 | CN(C)C(=O)[C@@]1(C)CN(C)C(=O)c2c(O)c(=O)c(-c3nnc(Cc4ccc(F)cc4)s3)cn21 [Example 313] | 9.7
36 | CC(C)N1CC(C)(C(=O)N(C)C)n2cc(-c3nnc(Cc4ccc(F)c(F)c4)s3)c(=O)c(O)c2C1=O (centres unmarked) [Example 157] | 29
37 | CC(C)N1CC(C)(C(=O)N2CCCCC2)n2cc(-c3ncc(Cc4ccc(F)cc4)s3)c(=O)c(O)c2C1=O (centres unmarked) [Example 108] | 18
38 | CC(C)N1C[C@](C)(C(=O)N2CC[C@@H](O)C2)n2cc(-c3nnc(Cc4ccc(F)cc4)s3)c(=O)c(O)c2C1=O [Example 205] | 13
39 | COCCOC[C@H]1Cn2cc(-c3nnc(Cc4ccc(F)cc4)s3)c(=O)c(O)c2C(=O)N1C(C)C [Example 120] | 15
40 | CC(C)N1CC(CS(C)(=O)=O)n2cc(-c3ncc(Cc4ccc(F)cc4F)s3)c(=O)c(O)c2C1=O (centres unmarked) [Example 101] | 6.4
41 | CCNC(=O)[C@]1(C)Cn2cc(-c3nnc(Cc4ccc(F)cc4)s3)c(=O)c(O)c2C(=O)N1C(C)C [Example 307] | 11
42 | CO[C@@H](C)[C@H]1CN(C(C)C)C(=O)c2c(O)c(=O)c(-c3ncc(Cc4ccc(F)cc4)s3)cn21 [Example 388] | 8.6
43 | CCN1C(=O)c2c(O)c(=O)c(-c3nnc(Cc4ccc(F)cc4)s3)cn2C[C@@H]1C(C)C [Example 287] | 8
44 | COC[C@H]1CN(C(C)C)C(=O)c2c(O)c(=O)c(-c3nnc(Cc4ccc(F)cc4C4CC4)s3)cn21 [Example 251] | 11
45 | CC(C)N1CC(C)(C(=O)N2CCCC2)n2cc(-c3ncc(Cc4ccc(F)cc4F)s3)c(=O)c(O)c2C1=O (centres unmarked) [Example 39] | 10
46 | COC[C@H]1CN([C@@H](C)C2CC2)C(=O)c2c(O)c(=O)c(-c3nnc(Cc4ccc(F)cc4)s3)cn21 [Example 316] | 12
47 | CCN(C)C(=O)[C@]1(COCCOC)CN(C(C)C)C(=O)c2c(O)c(=O)c(-c3nnc(Cc4ccc(F)cc4)s3)cn21 [Example 397] | 19
48 | CCN1C(=O)c2c(O)c(=O)c(-c3nnc(Cc4ccc(F)cc4)s3)cn2C[C@@]1(C)COC [Example 270] | 9.5
49 | CCCCN1C[C@H](COCCOC)n2cc(-c3nnc(Cc4ccc(F)cc4)s3)c(=O)c(O)c2C1=O [Example 362] | 10
50 | CNC(=O)C1Cn2cc(-c3nnc(Cc4ccc(F)cc4F)s3)c(=O)c(O)c2C(=O)N1C(C)C (centres unmarked) [Example 51] | 5.7
